Positions of bridges follow the written chain, without caps; N, C: chain ends. Non-standard residues stand in square brackets, D forms with d. No end group written: not given here. Nle = CCCC[C@H](N)C(=O)O
Experiments:
[1] = target: T1, Natriuretic Peptide Receptor-A (NPR-A) signaling in MDCK cells (Canis lupus familiaris, UniProt A0A8I3MHU3); assay type: cell-based, canine; details: stimulation of cGMP accumulation in MDCK cells
T1 sequence (A0A8I3MHU3 32-1060): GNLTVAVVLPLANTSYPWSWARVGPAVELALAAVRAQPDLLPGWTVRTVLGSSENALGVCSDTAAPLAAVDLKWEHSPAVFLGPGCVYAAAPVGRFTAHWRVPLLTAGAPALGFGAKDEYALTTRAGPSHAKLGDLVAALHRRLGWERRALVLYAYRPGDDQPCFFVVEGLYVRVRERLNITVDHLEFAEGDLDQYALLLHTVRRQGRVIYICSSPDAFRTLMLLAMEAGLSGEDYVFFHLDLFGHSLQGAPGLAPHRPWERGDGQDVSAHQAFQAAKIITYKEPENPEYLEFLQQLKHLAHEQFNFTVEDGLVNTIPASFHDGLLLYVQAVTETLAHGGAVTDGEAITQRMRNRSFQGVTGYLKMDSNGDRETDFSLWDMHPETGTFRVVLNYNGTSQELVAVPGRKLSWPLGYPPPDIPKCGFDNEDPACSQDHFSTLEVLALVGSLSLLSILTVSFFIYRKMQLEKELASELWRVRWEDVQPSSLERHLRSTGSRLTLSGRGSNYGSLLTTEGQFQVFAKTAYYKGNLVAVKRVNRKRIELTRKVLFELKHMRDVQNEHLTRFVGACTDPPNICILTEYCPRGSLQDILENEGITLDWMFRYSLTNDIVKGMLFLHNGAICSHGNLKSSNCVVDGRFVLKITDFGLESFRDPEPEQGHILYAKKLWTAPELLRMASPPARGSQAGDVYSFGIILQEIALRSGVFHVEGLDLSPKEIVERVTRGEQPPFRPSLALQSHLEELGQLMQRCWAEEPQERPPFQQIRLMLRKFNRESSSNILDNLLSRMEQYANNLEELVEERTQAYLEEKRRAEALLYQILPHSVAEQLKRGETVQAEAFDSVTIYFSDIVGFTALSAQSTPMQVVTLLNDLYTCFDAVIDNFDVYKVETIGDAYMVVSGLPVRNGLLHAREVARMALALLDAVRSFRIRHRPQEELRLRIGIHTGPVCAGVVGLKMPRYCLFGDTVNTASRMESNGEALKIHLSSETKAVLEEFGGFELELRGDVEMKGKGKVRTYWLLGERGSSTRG

conscious rabbits = test: Blood pressure and heart rate in conscious rabbits, intravenous infusion dose-response (Example 8)
normal rats = test: Hemodynamic parameters in normal anesthetized rats (Example 10)
Plasmin = target: T2, Plasmin (Homo sapiens, UniProt P00747); test: Stability to enzymatic degradation by plasmin (Examples 7, 16); assay type: in vitro ADME; details: plasmin, 37° C.
T2 construct: with 500 ng Endopeptidase (NEP) or 10 μg Plasmin
Experimental: The incubation buffer contained 100 mM Tris/HCl and 150 mM NaCl and the pH was adjusted to 7.2-7.4. In each assay, 100 μl of peptide [500 μM] was incubated with 300 μl buffer (with 500 ng Endopeptidase (NEP) or 10 μg Plasmin) at 37° C. 50 μl aliquots were taken at times 5 min, 30 min, 60 min, 90 min, 180 min and 24 h. The reaction was quenched by heating to 100° C. for 4 min and the remaining peptide concentrations measured by RP-HPLC. Note that the levels of Plasmin required to degrade these peptides was several thousands time the levels present in human plasma.
The stability of TDT and was investigated using the same enzymatic degradation assays (NEP, plasmin, pepsin) disclosed in Example 7. […] It is also evident that the increased NEP stability cannot be explained by the length of the tail region alone as the NEP cleavage site residues at the N-terminal end of the loop region.

[2] = test system: rats with chronic heart failure; test: Rat model of chronic heart failure, left coronary artery occlusion, anesthetized (Example 10); details: HF rats
[3] = test system: denuded aortic rings, GC A receptor; test: Relaxation of noradrenaline constricted endothelium-denuded aortic rings (Example 11); design: species or system rat; details: GC-A mediated
Experimental: Male Sprague Dawley rats were killed and the descending thoracic aorta rapidly removed and flushed with physiological solution. After being cleared of adhering fat and connective tissue, 5 mm rings were mounted under 10 g resting tension, between two stainless steel hooks, in organ baths (37° C.) containing carbogenated (95% O2 and 5% CO2) physiological salt solution of the following composition (mM): NaCl, 118.4; NaHCO3, 25; glucose, 11; KCl, 4.7; MgSO4, 1.2; KH2PO4, 1.2 and CaCl2, 2.5. The lower hook was attached to a tissue holder and the upper hook to a force displacement transducer (Grass FTO3). Where indicated endothelial cells were removed by gentle rubbing of the intimal surface with a wire. To confirm the presence or absence of endothelial cells, tissues were precontracted with a sub-maximal concentration of phenylephrine (0.3 μM) and the response to acetylcholine (ACh, 10 μM) observed. Ach-induced relaxation greater than 80% of maximum indicated the presence of endothelium; whereas Ach-induced relaxation less than 10% indicated the absence of endothelium. Ring preparations under resting tension were conditioned by two contraction/relaxation cycles with 40 mM KCl, contracted by a third application of 40 mM KCl and then relaxed with different doses of the venom peptides. Responses were expressed as a percentage relaxation of the precontraction by KCl.
In addition to the peptides tested in example 3, a series of 13 analogs corresponding to the 2a, 2b and 2c grouping of peptides were examined for their ability to dilate noradrenaline constricted aortic rings. The degree of constriction was expressed as a percentage of the KCl induced constriction. The aortic rings were prepared in a manner similar to the method described in example 3. […]. In each case there were at least 3 separate aortic rings tested per peptide and all were denuded of endothelium to ensure responses were confined to the GC A receptor.

[4] = after 1 hour recovery period, Table 10A
[5] = after a 2 hour recovery period, Table 10B

T2 sequence (P00747 97-580 partner limits assumed, species assumed): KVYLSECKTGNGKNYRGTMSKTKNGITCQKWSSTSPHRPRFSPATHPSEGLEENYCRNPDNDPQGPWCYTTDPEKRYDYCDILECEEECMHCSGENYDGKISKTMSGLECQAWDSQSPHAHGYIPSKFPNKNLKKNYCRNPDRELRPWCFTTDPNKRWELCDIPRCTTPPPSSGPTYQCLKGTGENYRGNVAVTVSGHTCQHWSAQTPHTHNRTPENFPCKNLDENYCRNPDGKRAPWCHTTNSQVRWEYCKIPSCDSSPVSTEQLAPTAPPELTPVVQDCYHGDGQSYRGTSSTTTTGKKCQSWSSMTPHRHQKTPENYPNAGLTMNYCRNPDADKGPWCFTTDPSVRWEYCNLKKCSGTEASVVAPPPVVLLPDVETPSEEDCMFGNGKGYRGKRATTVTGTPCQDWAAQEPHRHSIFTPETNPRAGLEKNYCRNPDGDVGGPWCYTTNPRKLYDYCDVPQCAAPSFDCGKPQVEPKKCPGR
T2 sequence (P00747 581-810 limits assumed, species assumed): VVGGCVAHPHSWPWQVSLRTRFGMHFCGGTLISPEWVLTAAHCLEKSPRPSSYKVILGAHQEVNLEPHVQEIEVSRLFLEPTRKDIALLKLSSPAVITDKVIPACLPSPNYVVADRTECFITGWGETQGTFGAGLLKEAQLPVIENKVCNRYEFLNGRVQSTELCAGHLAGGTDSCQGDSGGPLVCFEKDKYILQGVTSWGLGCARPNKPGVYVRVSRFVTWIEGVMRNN

CC[C@H](C)[C@@H]1NC(=O)[C@H](CCCNC(=N)N)NC(=O)[C@H](CC(=O)O)NC(=O)[C@H](CCSC)NC(=O)[C@H](CCCCN)NC(=O)[C@H](CCCNC(=N)N)NC(=O)CNC(=O)[C@H](Cc2ccccc2)NC(=O)[C@@H](NC(=O)CNC(=O)[C@H](CO)NC(=O)CNC(=O)[C@H](CCC(N)=O)NC(=O)[C@@H](NC(=O)[C@H](CCSC)NC(=O)[C@H](CCCCN)NC(=O)[C@@H]2CCCN2C(=O)[C@@H](N)CO)C(C)C)CSSC[C@@H](C(=O)N[C@@H](CCCCN)C(=O)N[C@H](C(=O)N[C@@H](CC(C)C)C(=O)N[C@@H](CCCNC(=N)N)C(=O)N[C@@H](CCCNC(=N)N)C(=O)N[C@@H](Cc2c[nH]cn2)C(=O)O)C(C)C)NC(=O)CNC(=O)[C@H](CC(C)C)NC(=O)CNC(=O)[C@H](CO)NC(=O)[C@H](CO)NC(=O)[C@H](CO)NC(=O)[C@H](CO)NC1=O [hBNP]
−Log10 EC50 (pEC50) ± Standard Error [1]: 9.165 ± 0.1039 | EC50 ([1]; read-out: EC50 (M) ± Standard Error): 9.07e-10 M | time taken to recover to 50% of the peak response (conscious rabbits; bolus injection of 0.24 mg/kg TNPc or equivalent molar dose of BNP): 80 min | Blood Flow, mean change from control (normal rats; 50 pmol/kg/min, 30 min): -1.9 mL/min | Conductance, mean change from control (normal rats; 50 pmol/kg/min, 30 min): −1.1 ml/min/mmHg | Diastolic LVP, mean change from control (normal rats; 50 pmol/kg/min, 30 min): −0.1 mmHg | HCT, mean change from control (normal rats; 50 pmol/kg/min, 30 min): 1.0% | HR, mean change from control (normal rats; 50 pmol/kg/min, 30 min): −16.6 BPM | Mean BP, mean change from control (normal rats; 50 pmol/kg/min, 30 min): −6.4 mmHg | Urine Flow, mean change from control (normal rats; 50 pmol/kg/min, 30 min): 0.2 mL/h | Blood Flow, mean change from control (normal rats; 100 pmol/kg/min, 30 min): -2.6 mL/min | Conductance, mean change from control (normal rats; 100 pmol/kg/min, 30 min): −1.2 ml/min/mmHg | Diastolic LVP, mean change from control (normal rats; 100 pmol/kg/min, 30 min): 0.1 mmHg | HCT, mean change from control (normal rats; 100 pmol/kg/min, 30 min): 3.5% | HR, mean change from control (normal rats; 100 pmol/kg/min, 30 min): −5.3 BPM | Mean BP, mean change from control (normal rats; 100 pmol/kg/min, 30 min): −14.9 mmHg | Urine Flow, mean change from control (normal rats; 100 pmol/kg/min, 30 min): 0.7 mL/h | Blood Flow, mean change from control (normal rats; Recovery): -3.6 mL/min | Conductance, mean change from control (normal rats; Recovery): −1.3 ml/min/mmHg | Diastolic LVP, mean change from control (normal rats; Recovery): −0.2 mmHg | HCT, mean change from control (normal rats; Recovery): −0.3% | HR, mean change from control (normal rats; Recovery): 1.3 BPM | Mean BP, mean change from control (normal rats; Recovery): −14.1 mmHg | Urine Flow, mean change from control (normal rats; Recovery): 0.6 mL/h | Blood Flow, Average drug response SED (normal rats; average of the two doses): -2.2 ± 1.0 mL/min | Conductance, Average drug response SED (normal rats; average of the two doses): −1.1 ± 0.4 ml/min/mmHg | Diastolic LVP, Average drug response SED (normal rats; average of the two doses): 0.0 ± 0.3 mmHg | HCT, Average drug response SED (normal rats; average of the two doses): 2.2 ± 0.6% | HR, Average drug response SED (normal rats; average of the two doses): −10.9 ± 7.1 BPM | Mean BP, Average drug response SED (normal rats; average of the two doses): −10.7 ± 4.7 mmHg | Urine Flow, Average drug response SED (normal rats; average of the two doses): 0.5 ± 0.4 mL/h | half-life at 125 μM (Plasmin; plasmin in Tris/HCl-NaCl buffer, read-out: HalfLife in plasmin): 13.1 min | K (one phase exponential decay, best fit values) (Plasmin): 0.053 | PLATEAU (one phase exponential decay, best fit values) (Plasmin): 0.03403 | SPAN (one phase exponential decay, best fit values) (Plasmin): 0.9926 | Blood Flow, mean change from control ([2]; 50 pmol/kg/min, 30 min): -1.6 mL/min | Conductance, mean change from control ([2]; 50 pmol/kg/min, 30 min): −0.3 ml/min/mmHg | Diastolic LVP, mean change from control ([2]; 50 pmol/kg/min, 30 min): −0.7 mmHg | HCT, mean change from control ([2]; 50 pmol/kg/min, 30 min): 1.9% | HR, mean change from control ([2]; 50 pmol/kg/min, 30 min): −12.3 bpm | Mean BP, mean change from control ([2]; 50 pmol/kg/min, 30 min): −9.6 mmHg | Urine Flow, mean change from control ([2]; 50 pmol/kg/min, 30 min): 0.8 mL/h | Blood Flow, mean change from control ([2]; 100 pmol/kg/min, 30 min): -2.9 mL/min | Conductance, mean change from control ([2]; 100 pmol/kg/min, 30 min): 0.2 ml/min/mmHg | Diastolic LVP, mean change from control ([2]; 100 pmol/kg/min, 30 min): −1.2 mmHg | HCT, mean change from control ([2]; 100 pmol/kg/min, 30 min): 0.3% | HR, mean change from control ([2]; 100 pmol/kg/min, 30 min): −40.5 bpm | Mean BP, mean change from control ([2]; 100 pmol/kg/min, 30 min): −26.5 mmHg | Urine Flow, mean change from control ([2]; 100 pmol/kg/min, 30 min): 0.7 mL/h | Blood Flow, mean change from control ([2]; Recovery): -1.0 mL/min | Conductance, mean change from control ([2]; Recovery): 0.5 ml/min/mmHg | Diastolic LVP, mean change from control ([2]; Recovery): 1.9 mmHg | HCT, mean change from control ([2]; Recovery): −1.3% | HR, mean change from control ([2]; Recovery): −41.7 bpm | Mean BP, mean change from control ([2]; Recovery): −14.6 mmHg | Urine Flow, mean change from control ([2]; Recovery): -0.2 mL/h | Blood Flow, Average drug response SED ([2]; average of the two doses): -2.2 ± 0.4 mL/min | Conductance, Average drug response SED ([2]; average of the two doses): −0.1 ± 0.3 ml/min/mmHg | Diastolic LVP, Average drug response SED ([2]; average of the two doses): −1.0±1.0 mmHg | HCT, Average drug response SED ([2]; average of the two doses): 1.1 ± 0.8% | HR, Average drug response SED ([2]; average of the two doses): −26.4 ± 23.0 bpm | Mean BP, Average drug response SED ([2]; average of the two doses): −18.1±6.3 mmHg | Urine Flow, Average drug response SED ([2]; average of the two doses): 0.7 ± 0.3 mL/h

SDSKIGNGCFGFPLDRIGSVSGLGCNRIMQNRPKKFSGE (A portion of a natriuretic peptide) [TNPc P32R]
Recovery (MAP) (conscious rabbits; [4]): 57.6 mm Hg | Recovery Delta SED (MAP) (conscious rabbits; [4]): 0.1 ± 1.4 mm Hg | MAP at final dose (conscious rabbits; highest dose, Table 10A): 57.5 mm Hg | Treatment Effect, change of mean blood pressure during the infusion (conscious rabbits; highest dose, Table 10A, groups 1, 2A and 3): −19.9 mm Hg | recovery of MAP from the hypotension, in words (conscious rabbits; one hour after the end of infusion): did recover from the hypotension | Mean relaxation SEM of denuded aortic rings expressed as % of KCl response [3]: 66.4 ± 8.8%

SDSKIGNGCFGFPLDRIGSVSGLGCNRInQNPPKKFSGE (SDSKIGNGCFGFPLDRIGSVSGLGCNRI[Nle]QNPPKKFSGE; disulfide 9-25 (inferred); ends not checked) [TNPc Nle]
recovery of MAP, in words (conscious rabbits; 2 hours after infusion): partially recovered | MAP at final dose (conscious rabbits; Table 10B): 53.4 mm Hg | Recovery (MAP) (conscious rabbits; [5]): 64.5 mm Hg | Recovery Delta SED (MAP) (conscious rabbits; [5]): 11.0 ± 3.0 mm Hg | Treatment Effect, change of mean blood pressure during the infusion (conscious rabbits; final dose, Table 10B, groups 2B and 2C): −13.6 mm Hg | Mean relaxation SEM of denuded aortic rings expressed as % of KCl response [3]: 61.0 ± 2.5%

Reference: patent US8058242B2, “Chimeric proteins with natriuretic activity” (The University of Queensland, priority 2004, dated 2011)
